# Data reported in paper PMC5963757, “Expression, purification, and inhibition profile of dihydrofolate reductase from the filarial nematode Wuchereria bancrofti” (PLoS ONE, 2018).
# Read-outs that look alike come from different tables or passages of the source.
# Key:
# WbDHFR [1] = molecular target: T1, WbDHFR (Wuchereria bancrofti, UniProt J9F199)
# Experimental: To determine the mechanism of inhibition, Dixon plots were created and analyzed for the inhibitors against WbDHFR. We determined WbDHFR activity as described above at DHF concentrations of 2 μM, 4 μM, and 8 μM in 200 μL reaction volumes. WbDHFR (6 nM) and 100 μM NADPH cofactor were included in 1 X MTEN buffer at pH 6.0. […] The reciprocal initial velocities were plotted against inhibitor concentration for each substrate in Excel to create the Dixon plots. Substrate trend-lines were extended to calculate the intersection point,–KI. Each Dixon plot was generated in triplicate.
# A linear equation was fitted to the data at each substrate concentration. […] The KI values for BmDHFR in Table 1 were obtained using the Cheng-Prusoff Equation [18]. […] Inhibitor structures are shown in supporting information (S2 Fig).
# WbDHFR [2] = molecular target: T1, WbDHFR; assay type: biochemical
# Experimental: Compounds (-)-epicatechin, (-)-epicatechin gallate, and vitexin were tested as inhibitors of WbDHFR and BmDHFR. The compounds (-)-epicatechin and (-)-epicatechin gallate were synthesized as described previously. […] Disappearance of DHF and NADPH was observed by measuring absorbance at 340 nm to measure the DHFR activity in a SpectraMax M3 microplate reader. […] All experiments were completed in triplicate.
# [3] = read-out: Average KI, WbDHFR, average of three trials, Dixon plots
# [4] = read-out: KI Trial 1, WbDHFR, individual trial, Dixon plot
# [5] = read-out: KI Trial 2, WbDHFR, individual trial, Dixon plot
# [6] = read-out: KI Trial 3, WbDHFR, individual trial, Dixon plot
# [7] = read-out: KI WbDHFR, from Dixon plots, 6 nM WbDHFR, 100 μM NADPH, DHF 2, 4, 8 μM, pH 6.0, ± S.D.
# [8] = read-out: IC50 WbDHFR, pH 6.0, 100 μM NADPH, 50 μM DHF, 12.1 nM WbDHFR, average of triplicates ± S.D.
# [9] = read-out: IC50 against WbDHFR Average, average of three trials
# [10] = read-out: IC50 against WbDHFR Trial 1, individual trial
# [11] = read-out: IC50 against WbDHFR Trial 2, individual trial
# [12] = read-out: IC50 against WbDHFR Trial 3, individual trial
compound,measurement,setting,value
"CCc1nc(N)nc(N)c1-c1ccc(Cl)cc1 [Pyrimethamine, pyrimethamine]",Ki,WbDHFR [1]; [3],15 µM
same,Ki,WbDHFR [1]; [4],20.3 µM
same,Ki,WbDHFR [1]; [5],15.9 µM
same,Ki,WbDHFR [1]; [6],8.89 µM
same,Ki,WbDHFR [1]; [7],15 ± 6 µM
same,IC50,WbDHFR [2]; [8],454 ± 37 µM
same,IC50,WbDHFR [2]; [9],454 µM
same,IC50,WbDHFR [2]; [10],449 µM
same,IC50,WbDHFR [2]; [11],494 µM
same,IC50,WbDHFR [2]; [12],420 µM
"O=c1cc(-c2ccc(O)cc2)oc2c([C@@H]3O[C@H](CO)[C@@H](O)[C@H](O)[C@H]3O)c(O)cc(O)c12 [Vitexin, vitexin]",IC50,WbDHFR [2]; [8],> 240 µM
"Nc1nc(N)c2nc(CNc3ccc(C(=O)N[C@@H](CCC(=O)O)C(=O)O)cc3)cnc2n1 [Aminopterin, aminopterin]",Ki,WbDHFR [1]; [4],0.0026 µM
same,Ki,WbDHFR [1]; [5],0.00219 µM
same,Ki,WbDHFR [1]; [6],0.0016 µM
same,Ki,"WbDHFR [1]; read-out: KI WbDHFR, as stated in text (abstract, discussion)",0.0021 ± 0.0005 µM
same,Ki,WbDHFR [1]; [7],0.0021 ± 0.0005 µM
same,IC50,WbDHFR [2]; [8],0.014 ± 0.005 µM
same,IC50,WbDHFR [2]; [9],0.0144 µM
same,IC50,WbDHFR [2]; [10],0.0203 µM
same,IC50,WbDHFR [2]; [11],0.00996 µM
same,IC50,WbDHFR [2]; [12],0.013 µM
"Oc1cc(O)c2c(c1)O[C@H](c1ccc(O)c(O)c1)[C@H](O)C2 [(-)-Epicatechin, (-)-epicatechin]",IC50,WbDHFR [2]; [8],> 2500 µM
"Cc1nc2ccc(CN(C)c3ccc(C(=O)N[C@@H](CCC(=O)O)C(=O)O)s3)cc2c(=O)[nH]1 [Raltitrexed, raltitrexed]",Ki,WbDHFR [1]; [3],1.6 µM
same,Ki,WbDHFR [1]; [4],0.536 µM
same,Ki,WbDHFR [1]; [5],1.09 µM
same,Ki,WbDHFR [1]; [6],3.32 µM
same,IC50,WbDHFR [2]; [8],18 ± 10 µM
same,IC50,WbDHFR [2]; [9],17.8 µM
same,IC50,WbDHFR [2]; [10],28.6 µM
same,IC50,WbDHFR [2]; [11],11.7 µM
same,IC50,WbDHFR [2]; [12],13 µM
